Results on two compounds are retold here after patent publication US4891358A, “ANE derivatives with novel bridging” (Bio-Mega Inc., priority 1987, dated 1990).

Numbered stars: 1 amine (or outer) side, 2 acyl side, 3 side chain; on linkers, the order of the positions; unused ones are H or OH. Bridge positions count the residues as written; N and C are the ends. Square brackets hold non-standard residues; d marks the D form. Peptide text beside a SMILES is read from it. Pen = CC(C)(S)[C@H](N)C(=O)O; X1 = O=C(CCC[*:2])[*:1]

The assay deals with conscious normotensive rat. Description: Diuretic assay in the conscious normotensive rat. It counts as in vivo. The note with it: for URINE VOLUME: 0.5 μg/kg/min infusion via femoral vein, ratio of treated over control, volume in 10 minute sample (average of three consecutive samples); for ELECTROLYTE EXCRETION K^+ / ELECTROLYTE EXCRETION Na^+: 0.5 μg/kg/min infusion, treated minus controls, average of three samples. An excerpt: More explicitly, normotensive male rats (300-325 g) were anesthetized with halothane. Following an application of lidocaine 2% solution, the femoral artery was cannulated for measurements of blood pressure and heart rate, and the femoral vein was cannulated for the administration of the test compounds. The bladder was also cannulated to measure urine flow. After surgery was completed, the animals were placed in restraining cages and allowed to recover from anesthesia for a period of one hour. A Ringer's solution infusion was started at a rate of 1.2 ml per hour. Three control urine samples were collected at 10 minute intervals. The test compound was then infused at a rate varying from 0.5 to 3 μg/kg/min over 30 minutes. Three test samples of urine were collected at 10 minute intervals during the compound infusion. After the test compound had been infused for 30 minutes and 3 more urine samples were collected. The volume of each urine sample was determined and the electrolyte concentration was measured using a biomedical electrolyte analyser. The animals served as their own controls. The systolic and diastolic blood pressures and the heart rate were determined during each urine collection period.

For the compound `CC[C@H](C)[C@@H]1NC(=O)[C@H](CCCNC(=N)N)NC(=O)[C@H](CC(=O)O)NC(=O)[C@H]([C@@H](C)CC)NC(=O)[C@H](CCCNC(=N)N)NC(=O)CNC(=O)CNC(=O)[C@H](Cc2ccccc2)NC(=O)CCCSC(C)(C)[C@@H](C(=O)N[C@@H](CC(N)=O)C(=O)N[C@@H](CO)C(=O)N[C@@H](Cc2ccccc2)C(=O)N[C@@H](CCCNC(=N)N)C(=O)N[C@@H](Cc2ccc(O)cc2)C(=O)O)NC(=O)CNC(=O)[C@H](CC(C)C)NC(=O)CNC(=O)[C@H](CO)NC(=O)[C@H](CCC(N)=O)NC(=O)[C@H](C)NC(=O)CNC1=O` [rat[(CH2 CH2 CH2 CO)^105, Pen^121]-ANF(105-126)] (FGGRIDRIGAQSGLG[Pen]NSFRY-OH; linker N-16 via X1), the “URINE VOLUME” value is 3.0, the “ELECTROLYTE EXCRETION K^+” value is on record as 24.8 and the “ELECTROLYTE EXCRETION Na^+” value was found to be 17.9.

As for “rat [(CH2 -CH2 CH2 CO)^105]ANF-(105-126) [rat[(CH2 CH2 CH2 CO)^105]-ANF(105-126)]”, the “URINE VOLUME” value was found to be 2.8, the “ELECTROLYTE EXCRETION K^+” value is reported as 10.2 and the “ELECTROLYTE EXCRETION Na^+” value is reported as 34.0.
